The test system of series [1] is HeLa. The experiment in a line: Cellular uptake in human HeLa cell vesicular compartments at 50 uM after 60 mins using Hoechst H33342 dye by fluorescence microscopy analysis. Type of series: ADME, cell-based. As to conditions: 1 h; call rule not given here.
Series [2] deals with MCF7. The series is described as follows: Cellular uptake in human MCF7 cell vesicular compartments at 50 uM after 60 mins using Hoechst H33342 dye by fluorescence microscopy analysis. Type of series: ADME, cell-based. Conditions: mcf7, 1 h.
Series [3] relates to HT-29. The series is described as follows: Cellular uptake in human HT-29 cell vesicular compartments at 25 uM after 60 mins using Hoechst H33342 dye by fluorescence microscopy analysis. The class given is ADME, cell-based. As to conditions: ht-29, 1 h.
The test system of series [4] is HeLa. The experiment in a line: Cellular uptake in human HeLa cells at 25 uM after 60 mins by flow cytometry. The class given is ADME, cell-based. As to conditions: 1 h.
Series [5] relates to MCF7. The series is described as follows: Cellular uptake in human MCF7 cells at 25 uM after 60 mins by flow cytometry. The class given is ADME, cell-based. As to conditions: mcf7, 1 h.
The subject of series [6] is HT-29. The experiment in a line: Cellular uptake in human HT-29 cells at 25 uM after 60 mins by flow cytometry. Type of series: ADME, cell-based. Conditions: ht-29, 1 h.
In series [7] the test system is MCF7. The series is described as follows: Cellular uptake in human MCF7 cells at 25 uM after 60 mins by flow cytometry relative to cellular uptake in human HeLa cells. The class given is ADME, cell-based. Conditions: mcf7, 1 h.
In series [8] the test system is HT-29. The series is described as follows: Cellular uptake in human HT-29 cells at 25 uM after 60 mins by flow cytometry relative to cellular uptake in human HeLa cells. The class given is ADME, cell-based. Conditions: ht-29, 1 h.
Series [9] deals with MCF7. The series is described as follows: Toxicity in human MCF7 cells at up to 100 uM after 24 hrs. The class given is cell-based. Conditions: mcf7, 24 h.
Series [10] has as its system HT-29. The experiment in a line: Toxicity in human HT-29 cells at up to 100 uM after 24 hrs. Type of series: cell-based. Conditions: ht-29, 24 h.
In series [11] the test system is HeLa. The experiment in a line: Toxicity in human HeLa cells at up to 100 uM after 24 hrs. The class given is cell-based.
In series [12] the target is Serine/threonine-protein kinase PLK1 (Homo sapiens, UniProt P53350). The experiment in a line: Binding affinity to human polo-box domain of PLK1 after 1 hr by fluorescence polarization-based assay.
The test system of series [13] is MCF7. The series is described as follows: Cellular uptake in human MCF7 cell nucleus at 50 uM after 60 mins using Hoechst H33342 dye by fluorescence microscopy analysis. The class given is ADME, cell-based. Conditions: mcf7, 1 h.
The next series has as its system FaDu. The series is described as follows: Cellular uptake in human FADU cells assessed per mg of protein. Type of series: ADME, cell-based.
For series [14], the system named is HT-29. The experiment in a line: Cellular uptake in human HT-29 cells assessed per mg of protein. The class given is ADME, cell-based.

This passage reports Drug uptake, Activity and Kd results from ChEMBL document CHEMBL1806475, “Phosphopeptides with improved cellular uptake properties as ligands for the polo-box domain of polo-like kinase 1” (Bioorg Med Chem Lett, 2011).

Where a SMILES comes first, the peptide text is derived from it. Bounds are passed on as bounds.

Chain of Serine/threonine-protein kinase PLK1 (P53350 whole entry, the tested form may be a part): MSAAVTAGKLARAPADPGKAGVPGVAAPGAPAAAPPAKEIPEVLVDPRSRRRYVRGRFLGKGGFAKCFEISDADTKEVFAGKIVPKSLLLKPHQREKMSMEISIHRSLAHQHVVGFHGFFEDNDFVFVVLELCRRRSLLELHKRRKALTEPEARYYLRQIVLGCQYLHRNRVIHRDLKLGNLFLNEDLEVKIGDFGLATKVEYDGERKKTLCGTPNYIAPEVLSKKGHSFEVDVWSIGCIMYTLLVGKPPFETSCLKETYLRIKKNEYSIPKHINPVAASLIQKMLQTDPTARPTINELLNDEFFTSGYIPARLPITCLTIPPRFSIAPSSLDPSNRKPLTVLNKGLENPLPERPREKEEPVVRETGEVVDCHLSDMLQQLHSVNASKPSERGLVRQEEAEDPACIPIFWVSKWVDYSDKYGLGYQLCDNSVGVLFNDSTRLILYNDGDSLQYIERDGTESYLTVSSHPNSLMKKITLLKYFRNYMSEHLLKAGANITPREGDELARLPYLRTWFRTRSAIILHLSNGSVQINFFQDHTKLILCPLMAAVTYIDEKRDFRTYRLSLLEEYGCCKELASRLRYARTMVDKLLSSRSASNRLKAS

With `CC[C@H](C)[C@H](NC(=O)[C@H](CCCCN)NC(=O)[C@H](CC(N)=O)NC(=O)[C@H](CCCN=C(N)N)NC(=O)[C@H](Cc1ccccc1)NC(=O)[C@H](CCCCN)NC(=O)[C@H](CCCN=C(N)N)NC(=O)[C@H](CC(C)C)NC(=O)[C@H](CCCN=C(N)N)NC(=O)[C@H](CCCCN)NC(=O)[C@H](CCCN=C(N)N)NC(=O)[C@H](CC(C)C)NC(=O)CNC(=O)[C@H](CC(C)C)NC(=O)[C@@H]1CCCN1C(=O)[C@@H](NC(=O)[C@H](CO)NC(=O)[C@H](CCC(N)=O)NC(=O)[C@H](CCSC)NC(=O)c1ccc2c(c1)C1(OC2=O)c2ccc(O)cc2Oc2cc(O)ccc21)[C@@H](C)OP(=O)(O)O)C(=O)N[C@@H](CCCCN)C(=O)N[C@@H](CCC(=O)O)C(=O)N[C@@H](CCCCN)C(N)=O` (HELM PEPTIDE1{[O=C1OC2(c3ccc(O)cc3Oc3cc(O)ccc32)c2cc(C(=O)[*:2])ccc21].M.Q.S.[C[C@@H](OP(=O)(O)O)[C@H](N[*:1])C(=O)[*:2]].P.L.G.L.R.K.R.L.R.K.F.R.N.K.I.K.E.K.[am]}$$$$V2.0), the Drug uptake entry with HeLa [1], with MCF7 [2], in the series with HT-29 [3], in the series on HeLa [4], in the series with MCF7 [5] and in the series on HT-29 [6] was “Active” in each case. The Drug uptake with MCF7 [7] and with HT-29 [8] was 15% throughout. The Activity result in the series with MCF7 [9], in the series with HT-29 [10] and in the series with HeLa [11] was “Non-toxic” each time. In [12], the Kd was 256 nM.

For the molecule `CC[C@H](C)[C@H](NC(=O)[C@H](C)NC(=O)[C@@H](NC(=O)[C@H](CCC(N)=O)NC(=O)[C@@H]1CCCN1C(=O)[C@H](Cc1ccccc1)NC(=O)[C@@H](NC(=O)[C@H](Cc1cnc[nH]1)NC(=O)[C@H](Cc1ccccc1)NC(=O)[C@H](CCCCNC(=O)[C@H](C)NC(=O)[C@H](Cc1ccccc1)NC(=O)[C@H](CCCCN)NC(=O)[C@H](CCCNC(=N)N)NC(=O)[C@H](CCCCN)NC(=O)[C@H](CCCCN)NC(=O)[C@H](CCCCN)NC(=O)[C@@H]1CCCN1C(=O)[C@H](C)NC(=O)[C@H](CCCCN)NC(=O)[C@H](CCCNC(=N)N)NC(=O)[C@H](CCCCN)NC(=O)[C@@H](N)CCCCN)NC(=O)[C@H](CC(C)C)NC(=O)[C@@H]1CCCN1C(=O)[C@@H](NC(=O)[C@H](CO)NC(=O)[C@H](CCC(N)=O)NC(=O)[C@H](CCSC)NC(=O)c1ccc2c(c1)C1(OC2=O)c2ccc(O)cc2Oc2cc(O)ccc21)[C@@H](C)OP(=O)(O)O)[C@@H](C)O)[C@@H](C)O)C(=O)NCC(=O)N[C@H](C(=O)NCC(=O)N[C@@H](C)C(=O)N1CCC[C@H]1C(N)=O)C(C)C` (HELM PEPTIDE1{[O=C1OC2(c3ccc(O)cc3Oc3cc(O)ccc32)c2cc(C(=O)[*:2])ccc21].M.Q.S.[C[C@@H](OP(=O)(O)O)[C@H](N[*:1])C(=O)[*:2]].P.L.K.F.H.T.F.P.Q.T.A.I.G.V.G.A.P.[am]}|PEPTIDE2{K.K.R.K.A.P.K.K.K.R.K.F.A}$PEPTIDE1,PEPTIDE2,8:R3-13:R2$$$V2.0), the Drug uptake entry in the series with HeLa [1], in the series on MCF7 [2], in the series with HT-29 [3], in the series on MCF7 [13], with HeLa [4] and with MCF7 [5] was “Active” throughout. In addition, the Drug uptake result in the series on HT-29 [6] was “Active”; with MCF7 [7] it was 15%; in the series on HT-29 [8], 15%. The Activity entry in the series on MCF7 [9], in the series on HT-29 [10] and in the series with HeLa [11] was “Non-toxic” in each case. This molecule also came in with a Kd in [12] of 326 nM.

For the molecule `CSCC[C@H](NC(=O)c1ccc([18F])cc1)C(=O)N[C@@H](CCC(N)=O)C(=O)N[C@@H](CO)C(=O)N[C@H](C(=O)N1CCC[C@H]1C(=O)N[C@@H](CC(C)C)C(=O)O)[C@@H](C)OP(=O)(O)O`, the Drug uptake in the series with FaDu and in the series on HT-29 [14] was below 1 %ID in each case.

Consider `CSCC[C@H](NC(=O)c1ccc2c(c1)C1(OC2=O)c2ccc(O)cc2Oc2cc(O)ccc21)C(=O)N[C@@H](CCC(N)=O)C(=O)N[C@@H](CO)C(=O)N[C@H](C(=O)N1CCC[C@H]1C(=O)N[C@@H](CC(C)C)C(=O)O)[C@@H](C)OP(=O)(O)O`, for which the Drug uptake result is “Not Active” in the series on HeLa [1]; “Not Active” in the series with MCF7 [2]; “Not Active” in the series with HT-29 [3]; “Not Active” with HeLa [4]; “Not Active” in the series with MCF7 [5]; “Active” in the series on HT-29 [6]. This molecule yielded a Kd in series [12] of 93 nM.
